# Biological target: Vascular endothelial growth factor receptor 1 (Homo sapiens, UniProt P17948)
# Assay: ChEBML_213951
# Description: Inhibitory activity against Vascular endothelial growth factor receptor
# Vascular endothelial growth factor receptor 1, sequence (P17948 whole entry): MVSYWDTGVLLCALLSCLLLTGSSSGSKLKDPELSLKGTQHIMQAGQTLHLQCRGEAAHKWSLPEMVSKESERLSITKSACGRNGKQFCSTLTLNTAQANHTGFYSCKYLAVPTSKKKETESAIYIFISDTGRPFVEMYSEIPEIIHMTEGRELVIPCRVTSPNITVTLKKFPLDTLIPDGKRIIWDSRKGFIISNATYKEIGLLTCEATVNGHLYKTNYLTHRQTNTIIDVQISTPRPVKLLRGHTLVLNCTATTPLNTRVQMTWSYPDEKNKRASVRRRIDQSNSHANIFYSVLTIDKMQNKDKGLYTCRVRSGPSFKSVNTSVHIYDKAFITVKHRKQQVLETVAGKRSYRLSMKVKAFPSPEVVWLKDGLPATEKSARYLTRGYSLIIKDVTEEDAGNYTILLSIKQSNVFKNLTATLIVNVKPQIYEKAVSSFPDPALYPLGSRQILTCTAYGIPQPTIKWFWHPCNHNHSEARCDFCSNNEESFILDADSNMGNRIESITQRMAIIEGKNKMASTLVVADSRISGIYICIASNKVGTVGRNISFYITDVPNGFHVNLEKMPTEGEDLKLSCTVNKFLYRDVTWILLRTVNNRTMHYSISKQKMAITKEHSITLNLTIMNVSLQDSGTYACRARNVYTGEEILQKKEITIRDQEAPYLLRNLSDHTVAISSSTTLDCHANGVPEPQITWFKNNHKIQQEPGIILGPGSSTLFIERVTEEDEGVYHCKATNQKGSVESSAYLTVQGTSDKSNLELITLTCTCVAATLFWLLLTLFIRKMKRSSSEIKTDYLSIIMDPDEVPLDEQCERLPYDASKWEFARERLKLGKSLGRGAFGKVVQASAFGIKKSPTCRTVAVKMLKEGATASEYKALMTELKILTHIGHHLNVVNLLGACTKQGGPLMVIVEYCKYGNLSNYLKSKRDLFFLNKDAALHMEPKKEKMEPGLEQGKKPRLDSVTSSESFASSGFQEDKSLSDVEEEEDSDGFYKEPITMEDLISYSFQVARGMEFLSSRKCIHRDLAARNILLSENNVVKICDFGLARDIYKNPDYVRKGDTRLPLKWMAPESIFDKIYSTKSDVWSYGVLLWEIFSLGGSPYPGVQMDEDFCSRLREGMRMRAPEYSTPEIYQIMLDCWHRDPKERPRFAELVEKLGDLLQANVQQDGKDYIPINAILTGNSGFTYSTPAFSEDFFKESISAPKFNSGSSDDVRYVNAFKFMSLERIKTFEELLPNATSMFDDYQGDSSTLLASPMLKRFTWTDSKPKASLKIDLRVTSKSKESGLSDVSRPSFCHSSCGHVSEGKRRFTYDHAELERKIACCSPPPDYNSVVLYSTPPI
row,SMILES,IC50 [nM]
1,"c1csc(-c2cc3ncnc(Nc4ccc5[nH]ccc5c4)c3s2)c1 [(1H-Indol-5-yl)-(6-thiophen-2-yl-thieno[3,2-d]pyrimidin-4-yl)-amine]",130

# Biological target: not listed separately
# Assay: Inhibitory activity against Vascular endothelial growth factor receptor
row,SMILES,IC50 [nM]
1,"Cc1cc2cc(Nc3ccnc4cc(-c5ccc(CNCCOCCO)cc5)sc34)ccc2[nH]1 [2-(2-{4-[7-(2-Methyl-1H-indol-5-ylamino)-thieno[3,2-b]pyridin-2-yl]-benzylamino}-ethoxy)-ethanol]",5
2,"Cc1cc2cc(Nc3ccnc4cc(-c5ccc(CN(C)CCO)cc5)sc34)ccc2[nH]1 [2-(Methyl-{4-[7-(2-methyl-1H-indol-5-ylamino)-thieno[3,2-b]pyridin-2-yl]-benzyl}-amino)-ethanol]",3
3,"CN(CCO)Cc1ccc(-c2cc3nccc(Nc4ccc5[nH]ccc5c4)c3s2)cc1 [2-({4-[7-(1H-Indol-5-ylamino)-thieno[3,2-b]pyridin-2-yl]-benzyl}-methyl-amino)-ethanol]",4
4,"O=C(Cc1cc2ncnc(Nc3ccc4[nH]ccc4c3)c2s1)c1ccccc1 [2-[4-(1H-Indol-5-ylamino)-thieno[3,2-d]pyrimidin-6-yl]-1-((E)-phenyl)-ethenol]",2210
5,"CC(C)(CO)NCc1ccc(-c2cc3ncnc(Nc4ccc5[nH]ccc5c4)c3s2)cc1 [2-{4-[4-(1H-Indol-5-ylamino)-thieno[3,2-d]pyrimidin-6-yl]-benzylamino}-2-methyl-propan-1-ol]",25
6,"OCCNCc1ccc(-c2cc3nccc(Nc4ccc5[nH]ccc5c4)c3s2)cc1 [2-{4-[7-(1H-Indol-5-ylamino)-thieno[3,2-b]pyridin-2-yl]-benzylamino}-ethanol]",6
7,"Cc1cc2cc(Nc3ccnc4cc(-c5ccc(CNCCO)cc5)sc34)ccc2[nH]1 [2-{4-[7-(2-Methyl-1H-indol-5-ylamino)-thieno[3,2-b]pyridin-2-yl]-benzylamino}-ethanol]",4
8,"OCCCNCc1ccc(-c2cc3nccc(Nc4ccc5[nH]ccc5c4)c3s2)cc1 [3-{4-[7-(1H-Indol-5-ylamino)-thieno[3,2-b]pyridin-2-yl]-benzylamino}-propan-1-ol]",4
9,"Cc1cc2cc(Nc3ccnc4cc(-c5ccc(CNCCCO)cc5)sc34)ccc2[nH]1 [3-{4-[7-(2-Methyl-1H-indol-5-ylamino)-thieno[3,2-b]pyridin-2-yl]-benzylamino}-propan-1-ol]",5
10,"CCCNC(=O)c1cc2ncnc(Nc3ccc4[nH]ccc4c3)c2s1 [4-(1H-Indol-5-ylamino)-thieno[3,2-d]pyrimidine-6-carboxylic acid propylamide]",2000
11,"NC(=O)c1ccc(Nc2ncnc3cc(-c4ccccc4)sc23)cc1 [4-(6-Phenyl-thieno[3,2-d]pyrimidin-4-ylamino)-benzamide]",250
12,"Nc1ncnc2cc(-c3ccccc3)sc12 [6-Phenyl-thieno[3,2-d]pyrimidin-4-ylamine]",> 1250
13,"Cn1ccc2cc(Nc3ncnc4cc(-c5ccccc5)sc34)ccc21 [(1-Methyl-1H-indol-5-yl)-(6-phenyl-thieno[3,2-d]pyrimidin-4-yl)-amine]",> 2500
14,"c1ccc(-c2cc3ncnc(Nc4ccc5nn[nH]c5c4)c3s2)cc1 [(1H-Benzotriazol-5-yl)-(6-phenyl-thieno[3,2-d]pyrimidin-4-yl)-amine]",470
15,"c1ccc(-c2cc3ncnc(Nc4ccc5[nH]ncc5c4)c3s2)cc1 [(1H-Indazol-5-yl)-(6-phenyl-thieno[3,2-d]pyrimidin-4-yl)-amine]",620
16,"c1csc(-c2cc3nccc(Nc4ccc5[nH]ccc5c4)c3s2)c1 [(1H-Indol-5-yl)-(2-thiophen-2-yl-thieno[3,2-b]pyridin-7-yl)-amine]",132

row,SMILES,IC50 [nM]
1,"c1cc(Nc2ccc3[nH]ccc3c2)c2sc(-c3ccc(CN4CCOCC4)cc3)cc2n1 [(1H-Indol-5-yl)-[2-(4-morpholin-4-ylmethyl-phenyl)-thieno[3,2-b]pyridin-7-yl]-amine]",5
2,"c1nc(Nc2ccc3[nH]ccc3c2)c2sccc2n1 [(1H-Indol-5-yl)-thieno[3,2-d]pyrimidin-4-yl-amine]",1410
3,"Cc1cc2cc(Nc3ncnc4cc(-c5ccccc5)sc34)ccc2[nH]1 [(2-Methyl-1H-indol-5-yl)-(6-phenyl-thieno[3,2-d]pyrimidin-4-yl)-amine]",140
4,"Cc1cc2cc(Nc3ccnc4cc(-c5ccc(CN6CCOCC6)cc5)sc34)ccc2[nH]1 [(2-Methyl-1H-indol-5-yl)-[2-(4-morpholin-4-ylmethyl-phenyl)-thieno[3,2-b]pyridin-7-yl]-amine]",5
5,"Cc1c[nH]c2ccc(Nc3ncnc4cc(-c5ccccc5)sc34)cc12 [(3-Methyl-1H-indol-5-yl)-(6-phenyl-thieno[3,2-d]pyrimidin-4-yl)-amine]",290
6,"Brc1cc2ncnc(Nc3ccc4[nH]ccc4c3)c2s1 [(6-Bromo-thieno[3,2-d]pyrimidin-4-yl)-(1H-indol-5-yl)-amine]",220
7,"c1ccc(CNc2ncnc3cc(-c4ccccc4)sc23)cc1 [Benzyl-(6-phenyl-thieno[3,2-d]pyrimidin-4-yl)-amine]",> 2500
8,"c1ccc(NCCN(c2cc3ncnc(Nc4ccc5[nH]ccc5c4)c3s2)n2cccc2)cc1 [N*4*-(1H-Indol-5-yl)-N*6*-(2-phenylamino-ethyl)-N*6*-pyrrol-1-yl-thieno[3,2-d]pyrimidine-4,6-diamine]",43
9,"CN(C)c1ccc(Nc2ncnc3cc(-c4ccccc4)sc23)cc1 [N,N-Dimethyl-N'-(6-phenyl-thieno[3,2-d]pyrimidin-4-yl)-benzene-1,4-diamine]",500
10,"CC(=O)NCCNCc1ccc(-c2cc3ncnc(Nc4ccc5[nH]ccc5c4)c3s2)cc1 [N-(2-{4-[4-(1H-Indol-5-ylamino)-thieno[3,2-d]pyrimidin-6-yl]-benzylamino}-ethyl)-acetamide]",4
11,"CC(=O)NCCNCc1ccc(-c2cc3nccc(Nc4ccc5[nH]ccc5c4)c3s2)cc1 [N-(2-{4-[7-(1H-Indol-5-ylamino)-thieno[3,2-b]pyridin-2-yl]-benzylamino}-ethyl)-acetamide]",24
12,"CNc1ccc(Nc2ncnc3cc(-c4ccccc4)sc23)cc1 [N-Methyl-N'-(6-phenyl-thieno[3,2-d]pyrimidin-4-yl)-benzene-1,4-diamine]",190
13,"c1ccc(Nc2ccc(Nc3ncnc4cc(-c5ccccc5)sc34)cc2)cc1 [N-Phenyl-N'-(6-phenyl-thieno[3,2-d]pyrimidin-4-yl)-benzene-1,4-diamine]",390
14,"O=C(c1ccccc1)c1cc2ncnc(Nc3ccc4[nH]ccc4c3)c2s1 [[4-(1H-Indol-5-ylamino)-thieno[3,2-d]pyrimidin-6-yl]-phenyl-methanone]",770
15,"NCc1ccc(-c2cc3ncnc(Nc4ccc5[nH]ccc5c4)c3s2)cc1 [[6-(4-Aminomethyl-phenyl)-thieno[3,2-d]pyrimidin-4-yl]-(1H-indol-5-yl)-amine]",18
16,"OCc1ccc(-c2cc3ncnc(Nc4ccc5[nH]ccc5c4)c3s2)cc1 [{4-[4-(1H-Indol-5-ylamino)-thieno[3,2-d]pyrimidin-6-yl]-phenyl}-methanol]",56

# Biological target: not listed separately
# Assay: as above
# Remark: another data set of the same source
row,SMILES,IC50 [nM]
1,"c1ccc(-c2cc3ncnc(Nc4ccc5[nH]ccc5c4)c3s2)cc1 [(1H-Indol-5-yl)-(6-phenyl-thieno[3,2-d]pyrimidin-4-yl)-amine]",48
2,"c1ccc(CCCN(c2cc3ncnc(Nc4ccc5[nH]ccc5c4)c3s2)n2ccnc2)cc1 [N*6*-Imidazol-1-yl-N*4*-(1H-indol-5-yl)-N*6*-(3-phenyl-propyl)-thieno[3,2-d]pyrimidine-4,6-diamine]",4

# From BindingDB's records for doi:10.1016/j.bmcl.2003.10.030 (Pfizer, 2003)
